Measurements as given in US20090215857A1 (Pfizer Products Inc., priority 2005, published 2009).

What was measured:
[1] = target: T1, human norepinephrine transporter (Homo sapiens, UniProt P23975); experiment: hNET receptor binding ([125I]-RTI-55 radioligand); settings: membranes of HEK-293 cells transfected with human norepinephrine transporter cDNA; 50 pM [125I]-RTI-55; IC50 converted by Cheng-Prusoff; read-out: NET Ki
T1 construct: expressed in transfected cells; host or cells: HEK-293
Protocol: (§1) Cell pastes of HEK-293 cells transfected with a human norepinephrine transporter cDNA were prepared. The cell pastes were resuspended in 400 to 700 ml of Krebs-HEPES assay buffer (25 mM HEPES, 122 mM NaCl, 3 mM KCl, 1.2 mM MgSO4, 1.3 mM CaCl2, and 11 mM glucose, pH 7.4) with a Polytron homogenizer at setting 7 for 30 seconds. Aliquots of membranes (5 mg/ml protein) were stored in liquid nitrogen until used.
The binding assay was set up in Beckman deep-well polypropylene plates with a total volume of 250 μl containing: test compound (10^−5M to 10^−12M), cell membranes, and 50 pM [^125I]-RTI-55 (Perkin Elmer, NEX-272; specific activity 2200 Ci/mmol). The reaction was incubated by gentle agitation for 90 minutes at room temperature and was terminated by filtration through Whatman GF/C filter plates using a Brandel 96-well plate harvester. Scintillation fluid (100 μl) was added to each well, and bound [^125I]-RTI-55 was determined using a Wallac Trilux Beta Plate Counter. Test compounds were run in duplicate, and specific binding was defined as the difference between binding in the presence and absence of 10 μM desipramine.
Excel and GraphPad Prism software were used for data calculation and analysis. IC50 values were converted to K, values using the Cheng-Prusoff equation.

[2] = target: T2, human serotonin transporter (Homo sapiens, UniProt P31645); experiment: hSERT receptor binding ([125I]-RTI-55 radioligand); settings: membranes of HEK-293 cells transfected with human serotonin transporter cDNA; 50 pM [125I]-RTI-55; IC50 converted by Cheng-Prusoff; read-out: SERT Ki
T2 construct: expressed in transfected cells; host or cells: HEK-293
Protocol: as §1, with “serotonin” for “norepinephrine”, “Setting” for “setting”, “(˜2.5” for “(5”
Assays were set up in FlashPlates pre-coated with 0.1% PEI in a total volume of 250 μl containing: test compound (10^−5M to 10^−12M), cell membranes, and 50 pM [^125I]-RTI-55 (Perkin Elmer, NEX-272; specific activity 2200 Ci/mmol). The reaction was incubated and gently agitated for 90 minutes at room temperature, and terminated by removal of assay volume. Plates were covered, and bound [^125I]-RTI-55 was determined using a Wallac Trilux Beta Plate Counter. Test compounds were run in duplicate, and specific binding was defined as the difference between binding in the presence and absence of 10 μM citalopram.
Excel and GraphPad Prism software were used for data calculation and analysis. IC50 values were converted to Ki values using the Cheng-Prusoff equation.

T1 sequence (P23975 whole entry): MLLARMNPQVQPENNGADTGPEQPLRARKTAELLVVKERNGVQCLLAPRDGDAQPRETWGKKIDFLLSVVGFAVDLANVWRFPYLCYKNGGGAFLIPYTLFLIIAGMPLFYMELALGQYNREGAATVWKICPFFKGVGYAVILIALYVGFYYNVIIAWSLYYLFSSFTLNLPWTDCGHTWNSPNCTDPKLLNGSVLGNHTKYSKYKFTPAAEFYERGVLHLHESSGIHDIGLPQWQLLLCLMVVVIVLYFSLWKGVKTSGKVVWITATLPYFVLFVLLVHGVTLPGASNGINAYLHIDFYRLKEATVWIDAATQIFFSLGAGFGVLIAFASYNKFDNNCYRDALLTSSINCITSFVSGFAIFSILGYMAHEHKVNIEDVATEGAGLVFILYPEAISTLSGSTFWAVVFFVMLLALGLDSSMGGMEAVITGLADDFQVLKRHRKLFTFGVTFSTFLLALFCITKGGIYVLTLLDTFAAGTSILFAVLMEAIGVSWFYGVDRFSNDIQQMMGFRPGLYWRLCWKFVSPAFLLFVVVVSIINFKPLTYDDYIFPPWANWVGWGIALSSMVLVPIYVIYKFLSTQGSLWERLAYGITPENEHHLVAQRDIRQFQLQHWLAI
T2 sequence (P31645 whole entry): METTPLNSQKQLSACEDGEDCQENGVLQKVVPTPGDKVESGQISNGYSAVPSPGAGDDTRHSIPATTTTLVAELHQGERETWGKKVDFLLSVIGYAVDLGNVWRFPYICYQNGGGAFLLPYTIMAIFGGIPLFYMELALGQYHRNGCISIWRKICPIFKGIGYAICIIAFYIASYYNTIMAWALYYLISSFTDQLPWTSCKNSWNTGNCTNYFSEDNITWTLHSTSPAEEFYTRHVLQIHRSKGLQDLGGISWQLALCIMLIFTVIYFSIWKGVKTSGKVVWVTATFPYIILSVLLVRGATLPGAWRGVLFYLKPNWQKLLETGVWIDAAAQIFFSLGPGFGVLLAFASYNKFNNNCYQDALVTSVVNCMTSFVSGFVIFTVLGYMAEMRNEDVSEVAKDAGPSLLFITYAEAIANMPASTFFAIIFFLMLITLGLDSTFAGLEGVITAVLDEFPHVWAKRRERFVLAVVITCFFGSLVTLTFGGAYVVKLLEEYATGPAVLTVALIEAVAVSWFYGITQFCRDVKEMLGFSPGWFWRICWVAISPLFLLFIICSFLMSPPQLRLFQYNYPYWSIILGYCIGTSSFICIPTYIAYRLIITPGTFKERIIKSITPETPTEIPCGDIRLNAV

Ki [1] [nM]	Ki [2] [nM]	SMILES
3340	12.4	COc1ccc(Cl)cc1-c1ccccc1CO[C@H]1CCNC1 [Example D-44, (S)-3-(5′-Chloro-2′-methoxy-biphenyl-2-ylmethoxy)-pyrrolidine]
3340	12.4	c1cc(-c2ccccc2CO[C@H]2CCNC2)cc(-n2cccn2)c1 [Example D-45, (S)-1-[2′-(Pyrroldin-3-yloxymethyl)-biphenyl-3-yl]-1H-pyrazole]
3880	3760	c1ccc(-c2ccc3c(c2)OCCO3)c(CO[C@H]2CCNC2)c1 [Example D-46]
4120	906	CC(=O)c1ccc(-c2ccccc2CO[C@H]2CCNC2)cc1 [Example D-47, (S)-1-[2′-(Pyrrolidin-3-yloxymethyl)-biphenyl-4-yl]-ethanone]
4180	≥ 10000	c1ccc(COc2ccccc2-c2ccccc2CO[C@H]2CCNC2)cc1 [Example D-48, (S)-3-(2′-Benzyloxy-biphenyl-2-ylmethoxy)-pyrrolidine]
4230	2970	COc1ccc(C(C)C)cc1-c1ccccc1CO[C@H]1CCNC1 [Example D-49, (S)-(5′-Isopropyl-2′-methoxy-biphenyl-2-ylmethoxy)-pyrrolidine]
4450	709	c1ccc(-c2ccc3c(c2)OCCCO3)c(CO[C@H]2CCNC2)c1 [Example D-50, (S)-3-[2-(3,4-Dihydro-2H-benzo[b][1,4]dioxepin-7-yl)-benzyloxy]-pyrrolidine]
5410	5460	N#Cc1ccc(-c2ccccc2CO[C@H]2CCNC2)cc1 [Example D-51]
≥ 10000	≥ 10000	N#Cc1ccccc1-c1ccccc1CO[C@H]1CCNC1 [Example D-52]
≥ 10000	≥ 10000	N#Cc1cccc(-c2ccccc2CO[C@H]2CCNC2)c1 [Example D-53]
≥ 10000	≥ 10000	COc1ccc(-c2ccccc2CO[C@H]2CCNC2)c(OC)c1 [Example D-54, (S)-3-(2′,4′-Dimethoxy-biphenyl-2-ylmethoxy)-pyrrolidine]
≥ 10000	201	FC(F)(F)c1ccc(-c2ccccc2CO[C@H]2CCNC2)cc1 [Example D-55, (S)-3-(4′-Trifluoromethyl-biphenyl-2-ylmethoxy)-pyrrolidine]
≥ 10000	658	CC(C)Oc1ccc(-c2ccccc2CO[C@H]2CCNC2)cc1 [Example D-56, (S)-(4′-Isopropoxy-biphenyl-2-ylmethoxy)-pyrroldine]
≥ 10000	589	COc1cc(-c2ccccc2CO[C@H]2CCNC2)cc(OC)c1OC [Example D-57, (S)-3-(3′,4′,5′-Trimethoxy-biphenyl-2-ylmethoxy)-pyrrolidine]
≥ 10000	3030	CCS(=O)(=O)c1ccc(-c2ccccc2CO[C@H]2CCNC2)cc1 [Example D-58, (S)-3-(4′-Ethanesulfonyl-biphenyl-2-ylmethoxy)-pyrrolidine]
≥ 10000	57.8	Cc1cc(C)n(-c2cccc(-c3ccccc3CO[C@H]3CCNC3)c2)n1 [Example D-59, (S)-3,5-Dimethyl-1-[2′-(pyrrolidin-3-yloxymethyl)-biphenyl-3-yl]-1H-pyrazole]
≥ 10000	882	COc1cccc(-c2ccccc2CO[C@H]2CCNC2)c1C(=O)N(C(C)C)C(C)C [Example D-60, (S)-3-Methoxy-2′-(pyrrolidin-3-yloxymethyl)-biphenyl-2-carboxylic acid diisopropylamide]
993	794	COc1ccc(Cl)cc1-c1ccc(F)cc1CO[C@H]1CCNC1 [Example D-61, (S)-3-(5′-Chloro-4-fluoro-2′-methoxy-biphenyl-2-ylmethoxy)-pyrrolidine]
480	319	N#Cc1cccc(-c2ccc(F)cc2CO[C@H]2CCNC2)c1 [Example D-62, (S)-4′-Fluoro-2′-(pyrrolidin-3-yloxymethyl)-biphenyl-3-carbonitrile]

Ki [1] [nM]	Ki [2] [nM]	SMILES
36.6	423	Cc1ccc(-c2ccc(F)cc2CO[C@H]2CCNC2)cc1 [Example D-63, (S)-3-(4-Fluoro-4′-methyl-biphenyl-2-ylmethoxy)-pyrrolidine]
1290	656	COc1ccc(F)cc1-c1ccc(F)cc1CO[C@H]1CCNC1 [Example D-64, (S)-3-(4,5′-Difluoro-2′-methoxy-biphenyl-2-ylmethoxy)-pyrroldine]
265	49.7	Fc1ccc(-c2cc(Cl)cc(Cl)c2)c(CO[C@H]2CCNC2)c1 [Example D-65, (S)-3-(3′,5′-Dichloro-4-fluoro-biphenyl-2-ylmethoxy)-pyrrolidine]
65.9	126	Fc1ccc(-c2ccccc2)c(CO[C@H]2CCNC2)c1 [Example D-66, (S)-3-(4-Fluoro-biphenyl-2-ylmethoxy)-pyrrolidine]
377	116	Cc1cc(C)cc(-c2ccc(F)cc2CO[C@H]2CCNC2)c1 [Example D-67, (S)-3-(4-Fluoro-3′,5′-dimethyl-biphenyl-2-ylmethoxy)-pyrrolidine]
1160	1240	COc1ccc(OC)c(-c2ccc(F)cc2CO[C@H]2CCNC2)c1 [Example D-68, (S)-3-(4-Fluoro-2′,5′-dimethoxy-biphenyl-2-ylmethoxy)-pyrrolidine]
90.4	85.8	Cc1cccc(-c2ccc(F)cc2CO[C@H]2CCNC2)c1 [Example D-69, (S)-3-(4-Fluoro-3′-methyl-biphenyl-2-ylmethoxy)-pyrrolidine]
832	195	CCOc1cccc(-c2ccc(F)cc2CO[C@H]2CCNC2)c1 [Example D-70, (S)-3-(3′-Ethoxy-4-fluoro-biphenyl-2-ylmethoxy)-pyrrolidine]
60	108	Fc1ccc(-c2ccc(F)c(F)c2)c(CO[C@H]2CCNC2)c1 [Example D-71, (S)-(4,3′,4′-Trifluoro-biphenyl-2-ylmethoxy)-pyrrolidine]
205	356	COc1ccccc1-c1ccc(F)cc1CO[C@H]1CCNC1 [Example D-72, (S)-3-(4-Fluoro-2′-methoxy-biphenyl-2-ylmethoxy)-pyrrolidine]
146	49.7	Fc1ccc(-c2ccc(F)c(Cl)c2)c(CO[C@H]2CCNC2)c1 [Example D-73, (S)-3-(3′-Chloro-4,4′-difluoro-biphenyl-2-ylmethoxy)-pyrrolidine]
43.4	146	Fc1ccc(-c2ccc(F)cc2CO[C@H]2CCNC2)cc1 [Example D-74, (S)-3-(4,4′-Difluoro-biphenyl-2-ylmethoxy)-pyrrolidine]
598	106	Fc1ccc(-c2cccc(C(F)(F)F)c2)c(CO[C@H]2CCNC2)c1 [Example D-75, (S)-3-(4-Fluoro-3′-trifluoromethyl-biphenyl-2-ylmethoxy)-pyrrolidine]
1280	734	CCc1ccc(-c2ccc(F)cc2CO[C@H]2CCNC2)cc1 [Example D-76, (S)-3-(4′-Ethyl-4-fluoro-biphenyl-2-ylmethoxy)-pyrrolidine]
1350	1400	COc1ccc(-c2ccc(F)cc2CO[C@H]2CCNC2)c(OC)c1 [Example D-77, (S)-3-(4-Fluoro-2′,4′-dimethoxy-biphenyl-2-ylmethoxy)-pyrrolidine]
6870	444	CC(=O)c1ccc(-c2ccc(F)cc2CO[C@H]2CCNC2)cc1 [Example D-78, (S)-1-[4′-Fluoro-2′-(pyrrolidin-3-yloxymethyl)-biphenyl-4-yl]-ethanone]
6780	206	Fc1ccc(-c2ccc(C(F)(F)F)cc2)c(CO[C@H]2CCNC2)c1 [Example D-79, (S)-3-(4-Fluoro-4′-trifluoromethyl-biphenyl-2-ylmethoxy)-pyrrolidine]
36	44.7	Fc1cccc(-c2ccc(F)cc2CO[C@H]2CCNC2)c1 [Example D-80, (S)-3-(4,3′-Difluoro-biphenyl-2-ylmethoxy)-pyrrolidine]
